# From patent publication US20250195490A1, “ALPHA-METHYLENE AND AMINOMETHYL LACTONES AND LACTAMS FOR TREATMENT OF CLOSTRIDIOIDES DIFFICILE INFECTION (CDI)” (Purdue Research Foundation, priority 2022, published 2025)
# What was measured:
# MRSA (USA300) = experiment: microbe, parasite or virus in culture; assay type: cell-based, Staphylococcus aureus; conditions: aerobic, 37° C., at least 18 hours
# Description: (§1) Method: The minimum inhibitory concentration (MIC) of the compounds and control drugs, linezolid (antibiotic), vancomycin (antibiotic), 5-fluorocytosine (5-FC, antifungal drug), and fluconazole (antifungal drug) was determined using the broth microdilution method according to the guidelines outlined by the Clinical and Laboratory Standards Institute (CLSI) against clinically relevant bacterial (methicillin-resistant Staphylococcus aureus (MRSA), vancomycin-resistant Enterococcus faecalis (VRE), vancomycin-resistant Enterococcus faecium (VRE), Clostridioides difficile and Escherichia coli) and fungal (Candida albicans) strains. A solution equivalent to 0.5 McFarland standard was prepared from each strain and diluted in cation-adjusted Mueller-Hinton broth (for S. aureus and E. coli), tryptone soy broth (for E. faecalis), or brain heart infusion broth (for E. faecium) to achieve a bacterial inoculum of about 5×10^5 CFU/mL. C. difficile strains were cultured in brain heart infusion broth supplemented with hemin and vitamin K. C. albicans was diluted in RPMI medium supplemented with 3-(N-morpholino) propanesulfonic acid to achieve a fungal concentration of about 1.5×10^3 CFU/mL. Compounds and control drugs were added in the first row of the 96-well plates and diluted with media containing bacteria (to achieve a concentration gradient ranging from 128 to 1 μg/mL). For MRSA, VRE, and E. coli strains, plates were then incubated aerobically at 37° C. for at least 18 hours. C. albicans was incubated aerobically at 37° C. for 24 hours. Plates containing C. difficile were incubated anaerobically at […] for 48 hours.
# E. faecalis (VRE) = experiment: microbe, parasite or virus in culture; assay type: cell-based, Enterococcus faecalis; conditions: aerobic, 37° C., at least 18 hours
# Description: as §1
# Clostridioides difficile = experiment: MIC by broth microdilution against Clostridioides difficile (Table 1); assay type: cell-based; conditions: anaerobic, 48 hours; strain BAA-1870
# Description: as §1
# E. coli (TolC mutant) = experiment: MIC by broth microdilution against E. coli (TolC mutant); assay type: cell-based, Escherichia coli; conditions: for MIC E. coli (TolC mutant): aerobic, 37° C., at least 18 hours
# Description: as §1
# [1] = tested on: hypervirulent Clostridioides difficile strains; experiment: MIC against hypervirulent Clostridioides difficile strains; assay type: cell-based
# Description: (§2) The antibacterial activity of compounds 48, 50, 51, 61 and 85 against a panel of Clostridioides difficile strains was evaluated. A bacterial solution equivalent to 0.5 McFarland standard was prepared and diluted in brain heart infusion broth supplemented with hemin and vitamin K. Compounds and control drugs were added in the first row of 96-well plates and serially diluted with media containing bacteria (to achieve a concentration gradient ranging from 128 to 1 μg/mL). Plates were then incubated anaerobically at […] for 48 hours.
# [2] = tested on: clinically important Clostridioides difficile strains; experiment: MIC against clinically important Clostridioides difficile strains; assay type: cell-based
# Description: as §2
# L. gasseri = experiment: MIC against human normal gut microbiota: L. gasseri; assay type: cell-based, Lactobacillus gasseri; conditions: L. gasseri HM 407
# Excerpt: (§3) The activity of the selected lactones against the human gut microbiota was also examined. Microbiota interfere with C. difficile's ability to colonize the gastrointestinal tract and subsequently cause infection. Many antibiotics inhibit/kill the endogenous microflora, which permits enhanced colonization by C. difficile and infection. Three different bacterial species that are present in the gut microflora were used in this experiment; Bifidobacterium (anaerobic Gram-positive bacteria), Bacteroides (anaerobic Gram-negative bacteria) and Lactobacillus (microaerophilic Gram-positive bacteria). Ideal compounds/drugs are those with selective antibacterial activity against C. difficile so as to protect the indigenous microflora present in the GI tract from being damaged/killed (which will exacerbate infections caused by C. difficile).
# (§4) Bifidobacterium and Bacteroides were first grown for 48 hours at 37° C., anaerobically, using brain heart infusion supplemented (BHIS) agar (brain heart infusion agar supplemented with hemin, vitamin K and L-cysteine). Lactobacillus was cultivated on MRS agar and incubated in the presence of 5% CO2 for 48 hours at 37° C. Each bacterium was suspended in phosphate-buffered saline (PBS) to achieve 0.5 McFarland standard and subsequently diluted in brain heart infusion supplemented broth (for Bifidobacterium and Bacteroides) or in MRS broth (for Lactobacillus) to achieve a bacterial inoculum of approximately 5×10^5 CFU/mL. Bacteria were then seeded in 96-well plates containing serial dilutions of the compounds and incubated for 48 hours. MICs reported in Table 4 are the minimum concentration of compound/control drug that inhibited the visual growth of bacteria.
# L. casei = experiment: MIC against human normal gut microbiota: L. casei; assay type: cell-based, Lactobacillus casei; conditions: L. casei HM 334
# Excerpt: as §3, §4
# L. reuteri = experiment: MIC against human normal gut microbiota: L. reuteri; assay type: cell-based, Lactobacillus reuteri; conditions: L. reuteri HM 120
# Excerpt: as §3, §4
# L. crispatus = experiment: MIC against human normal gut microbiota: L. crispatus; assay type: cell-based, Lactobacillus crispatus
# Excerpt: as §3, §4
# Ba. fragilis = experiment: MIC against human normal gut microbiota: Bacteroides fragilis; assay type: cell-based
# Excerpt: as §3, §4
# Ba. dorsei = experiment: MIC against human normal gut microbiota: Bacteroides dorsei; assay type: cell-based
# Excerpt: as §3, §4
# Bi. breve = experiment: MIC against human normal gut microbiota: Bifidobacterium breve; assay type: cell-based; conditions: Bi. breve HM 856
# Excerpt: as §3, §4
# Bi. longum = experiment: MIC against human normal gut microbiota: Bifidobacterium longum; assay type: cell-based; conditions: Bi. longum HM 848
# Excerpt: as §3, §4
# C. albicans = experiment: Broth microdilution against Candida albicans; assay type: cell-based; conditions: gradient 128 to 1 μg/mL, 24 hours
# Description: as §1
# E. faecium = experiment: Broth microdilution against vancomycin-resistant E. faecium; assay type: cell-based, Enterococcus faecium; conditions: gradient 128 to 1 μg/mL
# Description: as §1
compound,measurement,setting,value
C=C1C(=O)O[C@H](c2c(OC)cc(OC)cc2OC)[C@@H]1c1ccc(C(F)(F)F)cc1 (racemic) [Compound 61],MIC MRSA (USA300),MRSA (USA300),>128 µg/mL
same,MIC E. faecalis (VRE),E. faecalis (VRE),>128 µg/mL
same,MIC Clostridioides difficile,Clostridioides difficile,8 µg/mL
same,MIC E. coli (TolC mutant),E. coli (TolC mutant),>128 µg/mL
same,MIC,[1]; CD strain 81,16 µg/mL
same,MIC,[1]; CD strain 82,16 µg/mL
same,MIC,[1]; CD strain 83,64 µg/mL
same,MIC,[1]; CD strain 84,64 µg/mL
same,MIC,[1]; CD strain 85,64 µg/mL
same,MIC,[1]; CD strain 86,32 µg/mL
same,MIC,[1]; CD strain 87,8 µg/mL
same,MIC,[1]; CD strain 90,16 µg/mL
same,MIC,[1]; CD strain 49279,64 µg/mL
same,MIC,[1]; CD strain 49287,8 µg/mL
same,MIC,[1]; CD strain 49291,8 µg/mL
same,MIC,[2]; CD strain 16,16 µg/mL
same,MIC,[2]; CD strain 18,2 µg/mL
same,MIC,[2]; CD strain 19,8 µg/mL
same,MIC,[2]; CD strain 1801,16 µg/mL
same,MIC,[2]; CD strain 43255,4 µg/mL
same,MIC,[2]; CD strain P6,8 µg/mL
same,MIC,[2]; CD strain P7,8 µg/mL
same,MIC,[2]; CD strain P13,8 µg/mL
same,MIC,[2]; CD strain P19,8 µg/mL
same,MIC,L. gasseri,>128 µg/mL
same,MIC,L. casei,>128 µg/mL
same,MIC,L. reuteri,>128 µg/mL
same,MIC,L. crispatus; L. crispatus HM 375,>128 µg/mL
same,MIC,L. crispatus; L. crispatus HM 421,>128 µg/mL
same,MIC,Ba. fragilis; Ba. fragilis HM 709,>128 µg/mL
same,MIC,Ba. fragilis; Ba. fragilis HM 710,>128 µg/mL
same,MIC,Ba. fragilis; Ba. fragilis HM 711,>128 µg/mL
same,MIC,Ba. fragilis; Ba. fragilis HM 714,>128 µg/mL
same,MIC,Ba. dorsei; Ba. dorsei HM 29,>128 µg/mL
same,MIC,Ba. dorsei; Ba. dorsei HM 717,>128 µg/mL
same,MIC,Bi. breve,>128 µg/mL
same,MIC,Bi. longum,>128 µg/mL
same,activity against C. albicans,C. albicans,inactive
same,inhibition of the tested strains of E. faecium,E. faecium,did not inhibit
C=C1C(=O)O[C@H](c2ccc(OCc3ccccc3)c(OC(C)=O)c2)[C@@H]1c1ccccc1Br (racemic) [Compound 85],MIC MRSA (USA300),MRSA (USA300),>128 µg/mL
same,MIC E. faecalis (VRE),E. faecalis (VRE),>128 µg/mL
same,MIC Clostridioides difficile,Clostridioides difficile,4 µg/mL
same,MIC E. coli (TolC mutant),E. coli (TolC mutant),>128 µg/mL
same,MIC,[1]; CD strain 81,4 µg/mL
same,MIC,[1]; CD strain 82,2 µg/mL
same,MIC,[1]; CD strain 83,4 µg/mL
same,MIC,[1]; CD strain 84,4 µg/mL
same,MIC,[1]; CD strain 85,2 µg/mL
same,MIC,[1]; CD strain 86,4 µg/mL
same,MIC,[1]; CD strain 87,2 µg/mL
same,MIC,[1]; CD strain 90,2 µg/mL
same,MIC,[1]; CD strain 49279,4 µg/mL
same,MIC,[1]; CD strain 49287,2 µg/mL
same,MIC,[1]; CD strain 49291,2 µg/mL
same,MIC,[2]; CD strain 16,4 µg/mL
same,MIC,[2]; CD strain 18,4 µg/mL
same,MIC,[2]; CD strain 19,4 µg/mL
same,MIC,[2]; CD strain 1801,2 µg/mL
same,MIC,[2]; CD strain 43255,4 µg/mL
same,MIC,[2]; CD strain P6,4 µg/mL
same,MIC,[2]; CD strain P7,4 µg/mL
same,MIC,[2]; CD strain P13,4 µg/mL
same,MIC,[2]; CD strain P19,2 µg/mL
same,MIC,L. gasseri,>128 µg/mL
same,MIC,L. casei,>128 µg/mL
same,MIC,L. reuteri,>128 µg/mL
same,MIC,L. crispatus; L. crispatus HM 375,>128 µg/mL
same,MIC,L. crispatus; L. crispatus HM 421,>128 µg/mL
same,MIC,Ba. fragilis; Ba. fragilis HM 709,>128 µg/mL
same,MIC,Ba. fragilis; Ba. fragilis HM 710,>128 µg/mL
same,MIC,Ba. fragilis; Ba. fragilis HM 711,>128 µg/mL
same,MIC,Ba. fragilis; Ba. fragilis HM 714,>128 µg/mL
same,MIC,Ba. dorsei; Ba. dorsei HM 29,>128 µg/mL
same,MIC,Ba. dorsei; Ba. dorsei HM 717,>128 µg/mL
same,MIC,Bi. breve,>128 µg/mL
same,MIC,Bi. longum,>128 µg/mL
same,activity against C. albicans,C. albicans,inactive
same,inhibition of the tested strains of E. faecium,E. faecium,did not inhibit
"CC(=O)NC[C@H]1CN(c2ccc(N3CCOCC3)c(F)c2)C(=O)O1 [Linezolid, reference compound]",MIC,"MRSA (USA300); Staphylococcus aureus, read-out: MIC MRSA (USA300)",1 µg/mL
same,MIC,"E. faecalis (VRE); Enterococcus faecalis, VRE",1 µg/mL
same,MIC,"E. coli (TolC mutant); Escherichia coli, 18 h, read-out: MIC E. coli (TolC mutant)",16 µg/mL
